Experimental findings from ChEMBL document CHEMBL1158950, “New Sesquiterpenes from Xanthium catharticum” (J Nat Prod, 1991) are described below.

Active and inactive are the calls of the source. The calls are words filed in the database; no cut-off is given here.

One data set relates to Staphylococcus aureus. In words: Antimicrobial activity against Staphylococcus aureus. It is filed as functional, organism-based.
Another data set concerns Bacillus subtilis. As to the kind of experiment: Antimicrobial activity against Bacillus subtilis. It is filed as functional, organism-based.
Data set [1] deals with Agrobacterium tumefaciens. In words: Antitumor activity against Agrobacterium tumefaciens-induced crown gall tumor by potato disk assay. It is filed as functional.
Another data set concerns Artemia salina. In words: Toxicity in Artemia salina. It is filed as organism-based. To be noted: in vivo.

Take `CC(=O)/C=C/C1=CC[C@@H]2[C@H](C)C(=O)O[C@@H]2C[C@@H]1C`: the result with Staphylococcus aureus and with Bacillus subtilis was inactive.

As a reminder, the LC50 is the concentration lethal to half of the exposed cells or organisms. With `C=C1C(=O)O[C@@H]2CC(=C)[C@@H]3CC=C(C)[C@@H]3C[C@H]12` [GUAIANOLIDE ZINIOLIDE], the “inhibition (INH)” value in data set [1] is recorded as 49%. Also, the LC50 in the data set on Artemia salina was determined as 14 ppm.
